Measurements published in paper PMC6271384, “Synthesis, Cytotoxicity and Mechanistic Evaluation of 4-Oxoquinoline-3-carboxamide Derivatives: Finding New Potential Anticancer Drugs” (Molecules, 2014).

What was measured:
[1] = system: MDAMB231 breast cancer cell line; test: MTT cytotoxicity, breast cancer cell line; format: cell-based; settings: 95% confidence interval in brackets
Description: (§1) The 4-oxoquinoline-3-carboxamide derivatives (0.3125–20 μM) were tested for cytotoxic activity against three cancer cell lines: HCT-116 (colon), ACP03 (gastric), and MDAMB-231 (breast) (Table 1). Active derivatives were also tested against a normal fibroblast cell line (MRC-5). All cell lines were maintained in DMEM medium supplemented with 10% fetal bovine serum, 2 mM glutamine, 100 U/mL penicillin, and 100 µg/mL streptomycin and were incubated at 37 °C with 5% CO2. Each derivative was dissolved with DMSO to a concentration of 10 mM. The final concentration of DMSO in the culture medium was kept at a constant value below 0.1% (v/v). The derivatives (0.3125–20 µM) were incubated with the cells for 72 h. The negative control contained the same amount of DMSO ([…]). Cell viability was determined by the reduction of the yellow dye 3-(4,5-dimethyl-2-thiazol)-2,5-diphenyl-2H-tetrazolium bromide (MTT) to a blue formazan product as described by Mosmann.
(§2) In the MTT experiments, the results were analyzed according to their means and standard errors in the program GraphPad Prism. Each sample was analyzed in triplicate.

[2] = system: HCT-116 colon cancer cell line; test: MTT cytotoxicity, colon cancer cell line; format: cell-based; settings: 95% confidence interval in brackets
Description: as §1, §2

[3] = system: MRC5 normal human fetal lung fibroblast; test: MTT cytotoxicity, normal fibroblast cell line; format: cell-based; settings: for cytotoxicity in normal fibroblasts: at 20 µM, MRC-5; for IC50: normal human fetal lung fibroblast, MTT, 72 h, 95% confidence interval in brackets
Description: as §1, §2

[4] = system: ACP-03 (ACP03) gastric cancer cell line; test: MTT cytotoxicity, gastric cancer cell line; format: cell-based; settings: for IC50: gastric cancer cell line, MTT, 72 h, 95% confidence interval in brackets
Description: as §1, §2

mouse erythrocytes = test: Hemolytic assay (cell membrane disruption); format: cell-based; settings: result in words
Description: (§3) The assay was performed in 96-well plates using a 2% mouse erythrocyte suspension in 0.85% NaCl containing 10 mM CaCl2. Derivatives 10–18, diluted as described above, were tested at 250 µg/mL. After incubation at room temperature for 1 h and centrifugation, the supernatant was removed, and the liberated hemoglobin was measured spectrophotometrically at 540 nm. DMSO was used as a negative control, and Triton X-100 (1%) was used as a positive control.

[5] = biological target: T1, Human topoisomerase IIα (TopoIIα) (Homo sapiens, UniProt P11388); test: DNA relaxation assay (Topoisomerase II Drug Screening Kit); format: biochemical; settings: 100 µM compound, 10 U enzyme, 37 °C, 30 min, agarose gel
T1 construct: purchased TopoGEN, Inc. (Columbus, OH, USA)
Description: Human topoisomerase IIα (TopoIIα) was obtained from TopoGEN, Inc. (Columbus, OH, USA). Proteinase K from Tritirachium album was obtained from Sigma-Aldrich, Inc. (St. Louis, MO, USA) and was dissolved in DNase free water. A TAE gel electrophoresis buffer was used in this assay.
The inhibitory effects of the derivatives on human TopoIIα were measured using a Eukaryotic Topoisomerase II Drug Screening Kit (TopoGEN, Inc.). All derivatives were dissolved in DMSO immediately prior to testing.
The substances were tested at a fixed concentration of 0.1 mM. […] Supercoiled plasmid DNA (pRYG, 200 ng) was incubated with human TopoIIα (10 U) at 37 °C for 30 min in relaxation buffers in the absence or presence of derivatives (final volume is 20 μL). The order of reagent addition was buffer, test derivative, Topo IIα and finally DNA.
The assay samples were analyzed by electrophoresis on a 1% agarose gel without EtdBr (25 V, 18 h, room temperature) in TAE buffer, followed by staining in 0.5 μg/mL of EtdBr to allow for observation of the DNA bands under UV light.

[6] = Hemolytic assay (cell membrane disruption); format: cell-based, mouse; settings: 2% mouse erythrocyte suspension, 1 h, room temperature; read-out: Hemolysis (EC50)
Description: as §3

T1 sequence (P11388 whole entry): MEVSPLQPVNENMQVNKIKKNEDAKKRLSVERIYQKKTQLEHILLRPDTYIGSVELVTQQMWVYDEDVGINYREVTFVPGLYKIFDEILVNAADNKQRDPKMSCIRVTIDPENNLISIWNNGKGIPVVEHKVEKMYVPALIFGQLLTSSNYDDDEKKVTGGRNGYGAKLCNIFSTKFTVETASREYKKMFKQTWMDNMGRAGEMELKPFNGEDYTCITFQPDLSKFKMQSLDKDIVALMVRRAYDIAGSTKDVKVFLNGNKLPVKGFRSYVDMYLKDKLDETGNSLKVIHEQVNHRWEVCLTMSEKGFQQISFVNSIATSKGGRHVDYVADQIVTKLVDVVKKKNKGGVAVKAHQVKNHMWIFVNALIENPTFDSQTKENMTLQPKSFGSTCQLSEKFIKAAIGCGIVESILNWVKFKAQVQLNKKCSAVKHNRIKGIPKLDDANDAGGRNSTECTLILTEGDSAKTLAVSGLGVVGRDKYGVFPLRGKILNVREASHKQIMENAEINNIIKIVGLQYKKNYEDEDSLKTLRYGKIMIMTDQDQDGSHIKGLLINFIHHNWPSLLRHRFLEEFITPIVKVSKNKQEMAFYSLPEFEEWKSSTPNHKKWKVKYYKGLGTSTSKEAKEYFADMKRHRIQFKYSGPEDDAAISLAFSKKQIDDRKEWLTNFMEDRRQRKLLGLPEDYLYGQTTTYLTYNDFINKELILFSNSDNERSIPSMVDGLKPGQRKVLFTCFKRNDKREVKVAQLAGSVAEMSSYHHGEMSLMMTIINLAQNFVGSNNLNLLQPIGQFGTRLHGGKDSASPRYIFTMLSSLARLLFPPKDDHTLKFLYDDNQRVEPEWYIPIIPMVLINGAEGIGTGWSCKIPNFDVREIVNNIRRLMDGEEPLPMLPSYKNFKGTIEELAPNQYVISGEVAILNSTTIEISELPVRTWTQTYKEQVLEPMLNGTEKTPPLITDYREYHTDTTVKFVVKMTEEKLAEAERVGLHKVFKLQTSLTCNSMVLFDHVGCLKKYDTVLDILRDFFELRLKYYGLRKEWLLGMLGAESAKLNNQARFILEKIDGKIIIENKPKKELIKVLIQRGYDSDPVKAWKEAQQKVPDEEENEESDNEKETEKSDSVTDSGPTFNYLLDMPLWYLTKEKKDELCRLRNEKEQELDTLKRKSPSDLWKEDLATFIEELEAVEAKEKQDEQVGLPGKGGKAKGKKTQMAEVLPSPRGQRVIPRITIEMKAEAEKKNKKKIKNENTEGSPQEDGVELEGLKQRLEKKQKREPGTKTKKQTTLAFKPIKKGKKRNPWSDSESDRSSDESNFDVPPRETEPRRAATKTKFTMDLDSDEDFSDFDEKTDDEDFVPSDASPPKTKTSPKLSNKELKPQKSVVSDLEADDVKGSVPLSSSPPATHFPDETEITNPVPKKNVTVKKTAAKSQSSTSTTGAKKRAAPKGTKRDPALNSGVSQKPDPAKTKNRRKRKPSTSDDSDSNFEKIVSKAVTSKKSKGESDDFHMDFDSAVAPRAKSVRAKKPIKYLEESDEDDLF

SMILES	IC50 ([1]; 72 h) [µM]	IC50 ([2]; 72 h) [µM]	further results
O=C(NC1CCCCC1)c1c[nH]c2cc(Cl)ccc2c1=O [Derivative 11c, 7-Chloro-4-oxo-N'-cyclohexyl-1,4-dihydroquinoline-3-carboxamide]	> 10	> 10	–
Cc1ccc(NC(=O)c2c[nH]c3cc(Cl)ccc3c2=O)cc1 [Derivative 16c, 7-Chloro-4-oxo-N'-(p-tolyl)-1,4-dihydroquinoline-3-carboxamide]	> 10	> 10	–
Cc1ccc(NC(=O)c2c[nH]c3ccccc3c2=O)cc1 [Derivative 16a, 4-Oxo-N'-(p-tolyl)-1,4-dihydroquinoline-3-carboxamide]	> 10	> 10	–
COc1ccc(OC)c(NC(=O)c2c[nH]c3cc(Cl)ccc3c2=O)c1 [Derivative 18c, 7-Chloro-4-oxo-N'-(2,5-dimethoxyphenyl)-1,4-dihydroquinoline-3-carboxamide]	> 10	> 10	–
O=C(NCc1ccc(Cl)cc1)c1c[nH]c2ccccc2c1=O [Derivative 10a, 4-Oxo-N'-(4-chlorobenzyl)-1,4-dihydroquinoline-3-carboxamide]	> 10	> 10	–
O=C(Nc1ccc(F)cc1)c1c[nH]c2ccccc2c1=O [Derivative 13a, 4-oxo-N'-(4-Fluorophenyl)-1,4-dihydroquinoline-3-carboxamide]	> 10	> 10	–
O=C(NC1CCCCC1)c1c[nH]c2ccc(Cl)cc2c1=O [Derivative 11b, 6-Chloro-4-oxo-N'-cyclohexyl-1,4-dihydroquinoline-3-carboxamide]	> 10	> 10	–
O=C(Nc1ccccc1)c1c[nH]c2cc(Cl)ccc2c1=O [Derivative 15c, 7-Chloro-4-oxo-N'-phenyl-1,4-dihydroquinoline-3-carboxamide]	> 10	> 10	–
O=C(Nc1ccc(Cl)cc1)c1c[nH]c2ccc(Cl)cc2c1=O [Derivative 12b, 6-Chloro-4-oxo-N'-(4-chlorophenyl)-1,4-dihydroquinoline-3-carboxamide]	> 10	> 10	–
O=C(NCc1ccc(Cl)cc1)c1c[nH]c2ccc(Cl)cc2c1=O [Derivative 10b, 6-Chloro-4-oxo-N'-(4-chlorobenzyl)-1,4-dihydroquinoline-3-carboxamide]	> 10	> 10	–
COc1ccc(OC)c(NC(=O)c2c[nH]c3ccccc3c2=O)c1 [Derivative 18a, 4-Oxo-N'-(2,5-dimethoxyphenyl)-1,4-dihydroquinoline-3-carboxamide]	> 10	> 10	–
O=C(Nc1cc(Cl)ccc1Cl)c1c[nH]c2ccccc2c1=O [Derivative 17a, 4-Oxo-N'-(2,5-dichlorophenyl)-1,4-dihydroquinoline-3-carboxamide]	> 10	> 10	–
O=C(NCc1ccc(Cl)cc1)c1c[nH]c2cc(Cl)ccc2c1=O [Derivative 10c, 7-Chloro-4-oxo-N'-(4-chlorobenzyl)-1,4-dihydroquinoline-3-carboxamide]	> 10	> 10	–
O=C(Nc1ccccc1)c1c[nH]c2ccccc2c1=O [Derivative 15a, 4-oxo-N'-Phenyl-1,4-dihydroquinoline-3-carboxamide]	> 10	> 10	–
Cc1ccc(NC(=O)c2c[nH]c3ccc(Cl)cc3c2=O)cc1 [Derivative 16b, 6-Chloro-4-oxo-N'-(p-tolyl)-1,4-dihydroquinoline-3-carboxamide]	> 10	> 10	cytotoxicity in normal fibroblasts [3]: did not display cytotoxicity; IC50 [3]: > 20 µM; IC50 [4]: 1.92 µM; hemolytical activity against blood cells (mouse erythrocytes): no hemolytical activity; inhibition of supercoiled DNA (pRYG) relaxation by topoisomerase II [5]: only the SC band is observed, which indicates topoisomerase inhibition
COc1ccc(OC)c(NC(=O)c2c[nH]c3ccc(Cl)cc3c2=O)c1 [Derivative 18b, 6-Chloro-4-oxo-N'-(2,5-dimethoxyphenyl)-1,4-dihydroquinoline-3-carboxamide]	> 10	> 10	–
O=C(Nc1ccccc1)c1c[nH]c2ccc(Cl)cc2c1=O [Derivative 15b, 6-Chloro-4-oxo-N'-phenyl-1,4-dihydroquinoline-3-carboxamide]	> 10	> 10	–
O=C(Nc1ccc(F)cc1)c1c[nH]c2cc(Cl)ccc2c1=O [Derivative 13b, 7-Chloro-4-oxo-N'-(4-fluorphenyl)-1,4-dihydroquinoline-3-carboxamide]	> 10	> 10	–
O=C(Nc1cc(Cl)ccc1Cl)c1c[nH]c2cc(Cl)ccc2c1=O [Derivative 17c, 7-Chloro-4-oxo-N'-(2,5-dichlorophenyl)-1,4-dihydroquinoline-3-carboxamide]	> 10	> 10	–
O=C(Nc1cc(Cl)ccc1Cl)c1c[nH]c2ccc(Cl)cc2c1=O [Derivative 17b, 6-Chloro-4-oxo-N'-(2,5-dichlorophenyl)-1,4-dihydroquinoline-3-carboxamide]	> 10	> 10	cytotoxicity in normal fibroblasts [3]: did not display cytotoxicity; IC50 [3]: > 20 µM; IC50 [4]: 5.18 µM; hemolytical activity against blood cells (mouse erythrocytes): no hemolytical activity; inhibition of supercoiled DNA (pRYG) relaxation by topoisomerase II [5]: only the SC band is observed, which indicates topoisomerase inhibition
COc1ccc(NC(=O)c2c[nH]c3ccccc3c2=O)cc1 [Derivative 14a, 4-oxo-N'-(4-Methoxyphenyl)-1,4-dihydroquinoline-3-carboxamide]	> 10	> 10	–
O=C(NC1CCCCC1)c1c[nH]c2ccccc2c1=O [Derivative 11a, 4-Oxo-N'-cyclohexyl-1,4-dihydroquinoline-3-carboxamide]	> 10	> 10	–
COc1ccc(NC(=O)c2c[nH]c3cc(Cl)ccc3c2=O)cc1 [Derivative 14b, 7-Chloro-4-oxo-N'-(4-methoxyphenyl)-1,4-dihydroquinoline-3-carboxamide]	> 10	> 10	–
COc1cccc2c1C(=O)c1c(O)c3c(c(O)c1C2=O)C[C@@](O)(C(=O)CO)C[C@@H]3O[C@H]1C[C@H](N)[C@H](O)[C@H](C)O1 [DOXORUBICIN, doxorubicin, reference compound]	–	–	IC50 ([1]; Homo sapiens, MDA-MB-231, 72 h): 0.43 µM; IC50 ([3]; MRC5): 0.2 µM; selectivity against cancer cells versus normal cells ([4]; ACP-03 versus MRC-5): no selectivity; IC50 [4]: 0.274 µM; IC50 ([2]; Homo sapiens, HCT-116, 72 h): 0.1 µM; EC50 at 1 h [6]: > 200 µg/mL
O=C(Nc1ccc(Cl)cc1)c1c[nH]c2ccccc2c1=O [Derivative 12a, 4-oxo-N'-(4-Chlorophenyl)-1,4-dihydroquinoline-3-carboxamide]	> 10	> 10	–
